Assay results published in patent US4837305A, “Derivatives of β-adrenergic antagonists” (The Regents of the University of California, priority 1987, dated 1989).

Tested on: S-49 mouse lymphoma cells
Assay: Blocking of isoproterenol-promoted cyclic AMP accumulation in S-49 mouse lymphoma cells
Type: cell-based
Settings: blocking isoproterenol-promoted cyclic AMP release in S49 cells
Text: The β-adrenergic antagonist derivatives can be tested for biological and pharmacological activity by an in vitro technique. In this test a measurement is taken of the concentration of the derivative required to block a specified dose of isoproterenol (β-adrenergic agonist) in S-49 mouse lymphoma cells as measured by cyclic AMP accumulation therein. Details of the test utilizing S-49 mouse lymphoma cells is set forth in Coffino et al, In Vitro, 14, #1, 140 (1978). The activities of the β-adrenergic derivatives are expressed as the relative potencies of the unmodified drug, i.e., the β-adrenergic antagonist to that of the derivative drug.

| SMILES | Rel. Potency (potency relative to the parent compound) (relative to propranolol) | Rel. Potency (potency relative to the parent compound) (relative to practolol) |
| --- | --- | --- |
| CC(=O)N[C@@H](Cc1ccc(NC(=O)CCCCC(C)NCC(O)COc2cccc3ccccc23)cc1)C(=O)NCCCO (stereo partly drawn) [Compound 15, N^α -Acetyl-p-{6-(3-[1-Naphthyloxy]-2-Hydroxypropylamino)-Heptanoylamino}-L-Phenylalanyl-3-Hydroxypropylamide] | 1.75 × 10^-1 |  |
| Cc1ccc(NC(=O)CCCCCC(C)NCC(O)COc2cccc3ccccc23)cc1 (stereo not shown) [Compound 10, 7-[3-(1-Naphthyloxy)-2-Hydroxypropylamino]-Octanoic Acid-p-Toluide] | 3.7 × 10^-2 |  |
| Cc1ccc(NC(=O)CCCCC(C)NCC(O)COc2cccc3ccccc23)cc1 (stereo not shown) [Compound 9, 6-[3-(1-Naphthyloxy)-2-Hydroxypropylamino]-Heptanoic Acid p-Toluide] | 4.5 × 10^2 |  |
| CC(CCCCC(=O)Nc1ccc(C(F)(F)F)cc1)NCC(O)COc1cccc2ccccc12 (stereo not shown) [Compound 11, 6-[3-(1-Naphthyloxy)-2-Hydroxypropylamino]-Heptanoic Acid p-Trifluoromethylanilide] | 8.75 |  |
| CC(=O)Nc1ccc(OCC(O)CNC(C)CCCCC(=O)Nc2ccc(C(F)(F)F)cc2)cc1 (stereo not shown) [Compound 18, 6-[3-(4-Acetamidophenoxy)-2-Hydroxypropylamino]-Heptanoic Acid p-Trifluoromethylanilide] |  | 6.0 |
| CCCCNC(=O)CCc1ccc(NC(=O)CCCCC(C)NCC(O)COc2cccc3ccccc23)cc1 (stereo not shown) [Compound 13, 3-{p-(6-[3-(1-Naphthyloxy)-2-Hydroxypropylamino]Heptanoylamino)-Phenyl}-Propionic Acid n-Butylamide] | 4.5 × 10^-2 |  |
| CC(=O)Nc1ccc(OCC(O)CNC(C)CCCCC(=O)Nc2ccc(C)cc2)cc1 (stereo not shown) [Compound 17, 6-[3-(4-Acetamidophenoxy)-2-Hydroxypropylamino]-Heptanoic Acid p-Toluide] |  | 2.1 × 10^1 |
| Cc1ccc(NC(=O)CCCC(C)NCC(O)COc2cccc3ccccc23)cc1 (stereo not shown) [Compound 8, 5-[3-(1-Naphthyloxy)-2-Hydroxypropylamino]-Hexanoic Acid p-Toluide] | 6.8 × 10^-5 |  |
| CC(=O)Nc1ccc(OCC(O)CNC(C)CCCCC(=O)Nc2ccc(C[C@H](NC(C)=O)C(=O)NCCCO)cc2)cc1 (stereo partly drawn) [Compound 19, N^α -Acetyl-p-{6-(3-[4-Acetamidophenoxy]-2-Hydroxypropylamino)-Heptanoylamino}-L-Phenylalanyl-3-Hydroxypropylamide] |  | 1.5 |
| CC(CCCCC(=O)Nc1ccc(CCC(=O)O)cc1)NCC(O)COc1cccc2ccccc12 (stereo not shown) [Compound 12, 3-{p-(6-[3-(1-Naphthyloxy)-2-Hydroxypropylamino]Heptanoylamino)-Phenyl}-Propionic Acid] | 8.8 × 10^-1 |  |
| Cc1ccc(NC(=O)CCC(C)NCC(O)COc2cccc3ccccc23)cc1 (stereo not shown) [Compound 7, 4-[3-(1-Naphthyloxy)-2-Hydroxypropylamino]-Pentanoic Acid p-Toluide] | 6.8 × 10^-5 |  |
| CCCCNC(=O)CCCCC(C)NCC(O)COc1cccc2ccccc12 (stereo not shown) [Compound 14, 6-[3-(1-Naphthyloxy)-2-Hydroxypropylamino]-Heptanoic Acid n-Butylamide] | 9.1 × 10^-1 |  |
| CNC(=O)CNC(=O)[C@H](Cc1ccc(NC(=O)CCCCC(C)NCC(O)COc2cccc3ccccc23)cc1)NC(=O)OC(C)(C)C (stereo partly drawn) [Compound 16, N^α -t-Butyloxycarbonyl-p-{6-(3-[1-Naphthyloxy]-2-Hydroxypropylamino)-Heptanoylamino}-L-Phenylalanyl-Glycyl-Methylamide] | 7.8 × 10^-4 |  |
